The values below come from ChEMBL document CHEMBL1201862, “PubChem BioAssay data set” (2004).

Test systems include CAKI-1; HCC 2998; HCT-116; HOP-62; MOLT-4; NCI-H226; NCI-H460; NCI-H522; NCI/ADR-RES; OVCAR-3; RPMI-8226; SK-MEL-28; SK-MEL-5; SNB-75; SR; SW-620; U-251; HL-60; T47D.
What all share (test): NCI anticancer screen, dose series, 48 h

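Five concentrations, 48 hours, 96-well plates. At the GI50, growth is halved.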 Calls of active or inactive are those of the source. No stated cut-off is given here; in the data, active = GI50 up to about 1.1 µM and inactive = higher.

Consider `CC(C)(C)OC(=O)NC(Cc1ccccc1)NC(=O)NC(=O)OCc1ccccc1` (stereo not drawn), for which the GI50 is 24 µM (inactive) in the assay with CAKI-1; 40 µM (inactive) in the assay with HCC 2998; 19.2 µM (inactive) in the assay with HCT-116; 31.3 µM (inactive) with HOP-62; > 100 µM (inactive) with MOLT-4; 28.3 µM (inactive) in the assay on NCI-H226. Also, the GI50 was 63.7 µM (inactive) with NCI-H460; 15.6 µM (inactive) with NCI-H522; 55.7 µM (inactive) in the assay on NCI/ADR-RES; 42.2 µM (inactive) in the assay with OVCAR-3; > 100 µM (inactive) with RPMI-8226; 38.9 µM (inactive) with SK-MEL-28. The GI50 in the assay on SK-MEL-5 was 26.7 µM (inactive); with SNB-75, 32.8 µM (inactive); with SR, > 100 µM (inactive); in the assay on SW-620 it was 59.6 µM (inactive); in the assay with U-251 it was 58.5 µM (inactive).
With `Cc1ccc(/C=C/C(=N/NC(=O)N/N=C(/C=C/c2ccc(C)cc2)C(C)C)C(C)C)cc1`, the GI50 was > 10 µM (inactive) in the assay with CAKI-1; > 10 µM (inactive) in the assay on HCC 2998; 5.24 µM (inactive) in the assay with HCT-116; 4.42 µM (inactive) with HL-60; > 10 µM (inactive) in the assay on HOP-62; > 10 µM (inactive) in the assay with MOLT-4. For the same molecule, the GI50 with NCI-H226 was > 10 µM (inactive); with NCI-H460 it was > 10 µM (inactive); in the assay with NCI-H522 it was 9.12 µM (inactive); in the assay on NCI/ADR-RES it was > 10 µM (inactive); in the assay with OVCAR-3 it was 3.93 µM (inactive); in the assay with RPMI-8226, 3.11 µM (inactive). Moreover, the GI50 in the assay on SR, in the assay on SW-620 and in the assay with U-251 was > 10 µM (inactive) throughout.
For the molecule `O=C(c1ccccc1F)c1c(NCc2ccccc2)c(=O)c1=O`, the GI50 in the assay with CAKI-1, in the assay with HCC 2998, with HCT-116, with HL-60, with HOP-62 and in the assay with MOLT-4 was > 100 µM (inactive) throughout. Moreover, the GI50 with NCI-H226 was > 100 µM (inactive); in the assay on NCI-H460, > 100 µM (inactive); with NCI-H522, 19.9 µM (inactive); in the assay on NCI/ADR-RES, > 100 µM (inactive); with OVCAR-3 it was > 100 µM (inactive); in the assay with RPMI-8226 it was > 100 µM (inactive). Besides, the GI50 with SK-MEL-28, in the assay with SK-MEL-5, with SNB-75, in the assay on SW-620 and in the assay on U-251 was > 100 µM (inactive) each time.
Consider `O=C(O)CN1C(=O)C(Cc2ccc(O)cc2)N=C(c2cccc(O)c2)c2ccccc21` (stereo not drawn), for which the GI50 with HCT-116, with HL-60, in the assay on HOP-62, in the assay with MOLT-4, with NCI-H226 and in the assay with NCI-H460 was > 100 µM (inactive) each time. The GI50 in the assay on NCI-H522 was 80.4 µM (inactive); with OVCAR-3, > 100 µM (inactive); with RPMI-8226, > 100 µM (inactive); in the assay on SK-MEL-28, > 100 µM (inactive); in the assay with SNB-75, 40 µM (inactive); in the assay on SR it was > 100 µM (inactive). For the same molecule, the GI50 in the assay with SW-620, in the assay on T47D and with U-251 was > 100 µM (inactive) each time.
Regarding `CC1(C)OC1CC/C(=C/CBr)CBr` (stereo not drawn), the GI50 was 17.9 µM (inactive) in the assay with CAKI-1; 16 µM (inactive) in the assay on HCC 2998; 18.1 µM (inactive) with HCT-116; 4.92 µM (inactive) in the assay on HL-60; 17.3 µM (inactive) with HOP-62; 16.7 µM (inactive) with MOLT-4. Besides, the GI50 was 21.7 µM (inactive) in the assay on NCI-H226; 15 µM (inactive) in the assay on NCI-H460; 10.3 µM (inactive) in the assay with NCI-H522; 18.8 µM (inactive) with NCI/ADR-RES; 18.7 µM (inactive) in the assay on OVCAR-3; 12.9 µM (inactive) in the assay on RPMI-8226. Further, the GI50 with SK-MEL-28 was 17.2 µM (inactive); with SK-MEL-5, 14.1 µM (inactive); in the assay on SNB-75 it was 6.82 µM (inactive); with SR it was 13.8 µM (inactive); with SW-620 it was 15 µM (inactive); in the assay on U-251, 15.6 µM (inactive).
As for `Clc1ccc(Nc2nnc(CNc3ccc(-c4nnc(Nc5ccc(Cl)cc5)s4)cc3)s2)cc1`, the GI50 is 42.6 µM (inactive) in the assay on CAKI-1; 13.4 µM (inactive) in the assay on HCC 2998; 12.5 µM (inactive) in the assay with HCT-116; 30.4 µM (inactive) with HOP-62; 19 µM (inactive) in the assay on MOLT-4; 34.9 µM (inactive) with NCI-H226. Also, the GI50 was 15.2 µM (inactive) with NCI-H460; 12.8 µM (inactive) in the assay on NCI-H522; 48.4 µM (inactive) in the assay on NCI/ADR-RES; 18.4 µM (inactive) with RPMI-8226; 33.3 µM (inactive) in the assay on SK-MEL-28; 24.9 µM (inactive) in the assay with SK-MEL-5. The GI50 in the assay on SNB-75 is > 100 µM (inactive); with SW-620, 28.4 µM (inactive); with U-251, 24.2 µM (inactive).
On to `CC(=O)/C(=N\O)C(=O)NCc1ccccc1`, for which the GI50 with CAKI-1, in the assay with HCC 2998, in the assay on HCT-116, with HL-60, in the assay on HOP-62 and with MOLT-4 was > 100 µM (inactive) throughout. Also, the GI50 with NCI-H226 was > 100 µM (inactive); with NCI-H460, 35.2 µM (inactive); in the assay on NCI-H522 it was > 100 µM (inactive); in the assay on OVCAR-3, > 100 µM (inactive); in the assay on RPMI-8226, > 100 µM (inactive); in the assay on SK-MEL-28, > 100 µM (inactive). Further, the GI50 was > 100 µM (inactive) with SK-MEL-5; > 100 µM (inactive) in the assay on SNB-75; > 100 µM (inactive) in the assay on SR; 15.9 µM (inactive) with SW-620; > 100 µM (inactive) in the assay with U-251.
`COc1cccc(NC(=O)c2c(SC)c(C#N)c(=O)n(N)c2N)c1`: the GI50 in the assay with CAKI-1 was > 100 µM (inactive); with HCC 2998 it was > 100 µM (inactive); in the assay on HCT-116, 35.2 µM (inactive); with HOP-62, 50.9 µM (inactive); in the assay on MOLT-4 it was 41.8 µM (inactive); in the assay on NCI-H226 it was > 100 µM (inactive). In addition, the GI50 in the assay on NCI-H460 is 67.1 µM (inactive); with NCI-H522 it was 42.3 µM (inactive); in the assay with NCI/ADR-RES, 43 µM (inactive); in the assay on SK-MEL-28, > 100 µM (inactive); with SK-MEL-5, 64.9 µM (inactive); in the assay on SNB-75, 1.46 µM (inactive). Further, the GI50 is 51.2 µM (inactive) with SW-620 and 68.4 µM (inactive) in the assay with U-251.
As to `CCC(=O)O[C@H]1CC[C@H]2[C@@H]3CCC4=CC(=O)C=C[C@]4(O)[C@H]3CC[C@]12C`, the GI50 is 24.3 µM (inactive) in the assay with CAKI-1; 21.9 µM (inactive) in the assay on HCT-116; 11.9 µM (inactive) in the assay on HL-60; 29.4 µM (inactive) in the assay on HOP-62; 8.87 µM (inactive) in the assay on MOLT-4; > 100 µM (inactive) with NCI-H226. Besides, the GI50 was 16.3 µM (inactive) in the assay with NCI-H460; 16.7 µM (inactive) in the assay with NCI-H522; 37 µM (inactive) in the assay on NCI/ADR-RES; 19.8 µM (inactive) in the assay on OVCAR-3; 8.55 µM (inactive) with RPMI-8226; 67.6 µM (inactive) in the assay on SK-MEL-28. Also, the GI50 was 5.22 µM (inactive) in the assay with SK-MEL-5, 2.67 µM (inactive) in the assay on SR, 17.9 µM (inactive) in the assay on SW-620 and 20.5 µM (inactive) in the assay with U-251.
As for `CC(C)CC(NC(=O)C(CSc1ccc([N+](=O)[O-])cc1)Cc1ccccc1)C(=O)Nc1ccccc1` (stereo not drawn), the GI50 in the assay on CAKI-1 is 72.1 µM (inactive); in the assay on HCC 2998, > 100 µM (inactive); in the assay on HCT-116 it was > 100 µM (inactive); in the assay on HL-60, 40.9 µM (inactive); in the assay with MOLT-4, 59 µM (inactive); with NCI-H460, 49.8 µM (inactive). The GI50 with NCI-H522 was 64.9 µM (inactive); in the assay on NCI/ADR-RES, 30.2 µM (inactive); with OVCAR-3, > 100 µM (inactive); in the assay on RPMI-8226 it was > 100 µM (inactive); in the assay on SK-MEL-28, 98.2 µM (inactive); with SK-MEL-5, 64.3 µM (inactive). Also, the GI50 in the assay on SNB-75 was 26.4 µM (inactive); with SR it was > 100 µM (inactive); in the assay on SW-620 it was > 100 µM (inactive); in the assay with U-251, > 100 µM (inactive).
As for `Cc1ccc(S(=O)(=O)Nn2c(S)c(C#N)c(-c3ccc(N(C)C)cc3)c(C#N)c2=O)cc1`, the GI50 with CAKI-1 is > 100 µM (inactive); in the assay with HCC 2998, 38.2 µM (inactive); in the assay on HCT-116, 28.2 µM (inactive); with HL-60, 20.7 µM (inactive); in the assay on MOLT-4 it was 23.4 µM (inactive); in the assay on NCI-H226, 2.16 µM (inactive). Further, the GI50 was 15.2 µM (inactive) with NCI-H460; 14.5 µM (inactive) with NCI-H522; 32 µM (inactive) with NCI/ADR-RES; 15.6 µM (inactive) in the assay on RPMI-8226; 20.1 µM (inactive) with SK-MEL-28; 17.7 µM (inactive) in the assay with SK-MEL-5. The GI50 in the assay on SNB-75 is 35.2 µM (inactive); in the assay with SR, 23.7 µM (inactive); in the assay on SW-620 it was 18.1 µM (inactive); with U-251, 21.5 µM (inactive).
Consider `CO[C@@H]1C[C@H]2N3CC[C@@]2(c2cc4c(cc2C3)OCO4)[C@H]2O[C@@H]12`, for which the GI50 in the assay on CAKI-1, in the assay with HCC 2998, in the assay with HCT-116, in the assay on HL-60, with HOP-62 and with MOLT-4 was > 100 µM (inactive) in each case. For the same molecule, the GI50 was 1.34 µM (inactive) with NCI-H226; > 100 µM (inactive) in the assay with NCI-H460; > 100 µM (inactive) in the assay with NCI-H522; > 100 µM (inactive) in the assay with NCI/ADR-RES; > 100 µM (inactive) in the assay on OVCAR-3; > 100 µM (inactive) in the assay with RPMI-8226. The GI50 is > 100 µM (inactive) in the assay with SK-MEL-28; 0.157 µM (active) with SK-MEL-5; > 100 µM (inactive) in the assay with SNB-75; > 100 µM (inactive) with SW-620; > 100 µM (inactive) in the assay on U-251.
